Data as given in ChEMBL document CHEMBL1155728, “New steroid glycosides from the starfish Asterias rathbuni” (J Nat Prod, 2001).

What was measured:
Design in all cases: species or system Egg
[1] = Inhibition of cell division of fertilized eggs of Strongylocentrotus intermedius at 2.9 X 10 ' -5 M; details: fertilized sea urchin eggs
[2] = Inhibition of cell division of fertilized eggs of Strongylocentrotus intermedius
[3] = Inhibition of cell division of fertilized eggs of Strongylocentrotus intermedius at 7 X 10 ' -5 M; details: fertilized sea urchin eggs

IC100 [2] [×10⁻⁴ M] | Compound | other results
– | CC(C)=CC(=O)C[C@@H](C)[C@H]1CC[C@H]2[C@@H]3C[C@H](O)[C@H]4C[C@@H](OS(=O)(=O)O)CC[C@]4(C)C3=CC[C@]12C | inhibition at 29 µM [1]: 100%
1.9 | CC(C)[C@H](CC[C@@H](C)[C@H]1C[C@H](OS(=O)(=O)[O-])[C@H]2[C@@H]3C[C@H](O)[C@H]4C[C@@H](O)CC[C@]4(C)[C@H]3CC[C@@]21C)O[C@@H]1OC[C@@H](O)[C@H](O)[C@H]1O.[Na+] [AMURENSOSIDE A] | –
– | CC(C)[C@H](CC[C@@H](C)[C@H]1C[C@@H](O)[C@H]2[C@@H]3C[C@H](O)[C@H]4C[C@@H](O)CC[C@]4(C)[C@H]3CC[C@@]21C)O[C@@H]1OC[C@@H](O)[C@H](O)[C@H]1O [RATHBUNIOSIDE R1] | inhibition at 70 µM [3]: 100%
1.7 | CC(C)[C@H](CC[C@@H](C)[C@H]1C[C@H](O)[C@H]2[C@@H]3C[C@@H](O)[C@@]4(O)C[C@@H](O)CC[C@]4(C)[C@H]3CC[C@@]21C)O[C@@H]1OC[C@@H](O)[C@H](O)[C@H]1O [RATHBUNIOSIDE R2] | –
